Biological target: bovine cardiac myofibrils (full-length cardiac myosin ATPase in the native sarcomere) (Bos taurus (Bovine), UniProt Q9BE39)
Assay: Skinned bovine cardiac myofibril ATPase assay (PK/LDH-coupled)
Assay type: biochemical
Details: Ca2+ activating to 75% of maximal rate; for CDMF75 IC15: concentration giving 15% inhibition; for IC50: read-out: CDMF75 IC50
How it was run: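 Inhibition of steady-state ATPase read at 340 nm through a PK/LDH-coupled NADH system (0.5 mM NADH, 1.5 mM PEP). Detergent-skinned bovine cardiac myofibrils, 1 mg/mL, were tested at pH 6.8 in PIPES/MgCl2 with 50 μM ATP and calcium adjusted to give pCa50 or pCa75 activation.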

bovine cardiac myofibrils (full-length cardiac myosin ATPase in the native sarcomere), sequence (Q9BE39 whole entry): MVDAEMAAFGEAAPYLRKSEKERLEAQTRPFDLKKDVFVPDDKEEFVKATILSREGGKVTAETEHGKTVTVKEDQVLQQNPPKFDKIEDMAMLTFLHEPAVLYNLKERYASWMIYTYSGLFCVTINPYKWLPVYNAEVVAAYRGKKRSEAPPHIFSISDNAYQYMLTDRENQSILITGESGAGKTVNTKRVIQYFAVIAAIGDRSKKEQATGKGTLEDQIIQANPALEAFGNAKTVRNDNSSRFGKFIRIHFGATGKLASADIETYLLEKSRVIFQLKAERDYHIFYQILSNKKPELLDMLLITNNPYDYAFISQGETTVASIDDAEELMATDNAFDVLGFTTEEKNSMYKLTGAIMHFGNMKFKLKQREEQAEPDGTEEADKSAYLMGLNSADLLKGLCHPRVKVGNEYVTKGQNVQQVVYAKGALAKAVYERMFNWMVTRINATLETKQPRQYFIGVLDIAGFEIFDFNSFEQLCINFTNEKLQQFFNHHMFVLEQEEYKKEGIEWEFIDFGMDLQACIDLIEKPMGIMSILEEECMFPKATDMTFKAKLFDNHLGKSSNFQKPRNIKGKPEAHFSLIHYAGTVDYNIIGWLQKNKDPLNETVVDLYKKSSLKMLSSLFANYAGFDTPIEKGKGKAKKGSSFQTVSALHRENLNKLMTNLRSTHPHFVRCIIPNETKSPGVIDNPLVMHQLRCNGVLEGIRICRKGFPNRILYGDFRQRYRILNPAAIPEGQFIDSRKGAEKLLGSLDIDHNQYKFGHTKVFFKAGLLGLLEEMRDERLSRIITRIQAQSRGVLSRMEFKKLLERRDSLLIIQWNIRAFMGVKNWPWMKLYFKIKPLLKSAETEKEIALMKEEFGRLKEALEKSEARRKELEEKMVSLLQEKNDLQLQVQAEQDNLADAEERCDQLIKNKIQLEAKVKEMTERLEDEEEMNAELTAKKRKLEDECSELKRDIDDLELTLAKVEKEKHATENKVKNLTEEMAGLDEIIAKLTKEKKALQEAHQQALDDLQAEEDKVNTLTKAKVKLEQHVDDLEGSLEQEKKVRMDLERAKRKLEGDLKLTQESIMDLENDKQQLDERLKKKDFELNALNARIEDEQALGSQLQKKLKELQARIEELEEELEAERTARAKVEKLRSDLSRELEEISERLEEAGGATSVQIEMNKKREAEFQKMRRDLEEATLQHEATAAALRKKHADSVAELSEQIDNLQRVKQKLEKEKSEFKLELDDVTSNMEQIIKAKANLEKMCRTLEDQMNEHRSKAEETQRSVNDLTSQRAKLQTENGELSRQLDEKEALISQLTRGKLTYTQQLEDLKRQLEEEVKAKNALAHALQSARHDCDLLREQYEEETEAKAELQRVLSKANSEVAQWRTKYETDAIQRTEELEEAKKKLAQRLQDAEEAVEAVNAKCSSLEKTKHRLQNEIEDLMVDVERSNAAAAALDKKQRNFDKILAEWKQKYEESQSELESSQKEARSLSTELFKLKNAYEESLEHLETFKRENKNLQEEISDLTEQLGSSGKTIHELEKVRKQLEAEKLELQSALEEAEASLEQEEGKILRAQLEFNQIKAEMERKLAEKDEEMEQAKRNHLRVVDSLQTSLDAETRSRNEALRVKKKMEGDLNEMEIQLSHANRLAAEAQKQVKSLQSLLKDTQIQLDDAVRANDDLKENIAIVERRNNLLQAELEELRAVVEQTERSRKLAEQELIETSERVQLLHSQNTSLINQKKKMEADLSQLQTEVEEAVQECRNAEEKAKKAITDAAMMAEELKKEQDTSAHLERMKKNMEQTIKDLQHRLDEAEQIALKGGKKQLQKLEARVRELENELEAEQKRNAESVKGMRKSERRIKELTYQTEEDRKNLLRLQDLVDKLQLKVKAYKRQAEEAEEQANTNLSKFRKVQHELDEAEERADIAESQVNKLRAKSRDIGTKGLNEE
bovine cardiac myofibrils (full-length cardiac myosin ATPase in the native sarcomere), sequence (P85100 whole entry partner): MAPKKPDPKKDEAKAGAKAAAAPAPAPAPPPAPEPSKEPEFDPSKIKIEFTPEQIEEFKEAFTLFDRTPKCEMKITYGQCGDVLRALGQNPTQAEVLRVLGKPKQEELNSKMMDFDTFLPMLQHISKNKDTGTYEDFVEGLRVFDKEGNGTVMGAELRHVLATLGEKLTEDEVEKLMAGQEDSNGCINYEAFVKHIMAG
bovine cardiac myofibrils (full-length cardiac myosin ATPase in the native sarcomere), sequence (Q3SZE5 whole entry partner): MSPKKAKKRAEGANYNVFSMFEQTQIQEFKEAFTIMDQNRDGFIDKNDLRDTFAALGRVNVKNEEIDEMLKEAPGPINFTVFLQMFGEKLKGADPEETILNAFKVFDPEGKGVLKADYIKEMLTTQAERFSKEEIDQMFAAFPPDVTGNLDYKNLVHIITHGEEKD

SMILES | CDMF75 IC15 [nM] | IC50 [nM]
Cn1nnc(C(=O)NC2COc3cc(-c4noc(C5CC5)n4)ccc32)n1 (centres unmarked) [Compound 234, N-(6-(5-cyclopropyl-1,2,4-oxadiazol-3-yl)-2,3-dihydrobenzofuran-3-yl)-2-methyl-2H-tetrazole-5-carboxamide] | 1900 | 8000
Cn1nnc(C(=O)N[C@@H]2COc3cc(-c4noc(C5CC5)n4)ccc32)n1 [Compound 235, (S)-N-(6-(5-cyclopropyl-1,2,4-oxadiazol-3-yl)-2,3-dihydrobenzofuran-3-yl)-2-methyl-2H-tetrazole-5-carboxamide] | 1200 | 4800
Cn1cc(C(=O)NC2COc3cc(-c4noc(C5CC5)n4)ccc32)cn1 (centres unmarked) [Compound 237, N-(6-(5-cyclopropyl-1,2,4-oxadiazol-3-yl)-2,3-dihydrobenzofuran-3-yl)-1-methyl-1H-pyrazole-4-carboxamide] | 1100 | 3600
CCc1nc(-c2ccc3c(c2)OCC3NC(=O)c2cnn(C)c2)no1 (centres unmarked) [Compound 239, N-(6-(5-ethyl-1,2,4-oxadiazol-3-yl)-2,3-dihydrobenzofuran-3-yl)-1-methyl-1H-pyrazole-4-carboxamide] | 700 | 2100
CCc1nc(-c2ccc3c(c2)CC[C@H]3NC(=O)c2ccnn2C)no1 [Compound 240, (R)-N-(5-(5-ethyl-1,2,4-oxadiazol-3-yl)-2,3-dihydro-1H-inden-1-yl)-1-methyl-1H-pyrazole-5-carboxamide] | 300 | 800
Cn1nccc1C(=O)N[C@@H]1CCc2cc(-c3noc(C4CC4)n3)ccc21 [Compound 241, (R)-N-(5-(5-cyclopropyl-1,2,4-oxadiazol-3-yl)-2,3-dihydro-1H-inden-1-yl)-1-methyl-1H-pyrazole-5-carboxamide] | 200 | 800
[2H]C([2H])([2H])c1nc(-c2ccc3c(c2)CC[C@H]3NC(=O)c2ccnn2C)no1 [Compound 242, (R)-1-methyl-N-(5-(5-(methyl-d3)-1,2,4-oxadiazol-3-yl)-2,3-dihydro-1H-inden-1-yl)-1H-pyrazole-5-carboxamide] | 500 | 1500
[2H]C([2H])([2H])c1nc(-c2ccc3c(c2)CC[C@H]3NC(=O)c2nnn(C)n2)no1 [Compound 243, (R)-2-methyl-N-(5-(5-(methyl-d3)-1,2,4-oxadiazol-3-yl)-2,3-dihydro-1H-inden-1-yl)-2H-tetrazole-5-carboxamide] | 1300 | 4700
[2H]C([2H])([2H])c1nc(-c2ccc3c(c2)CC[C@H]3NC(=O)c2cnn(C)c2)no1 [Compound 244, (R)-1-methyl-N-(5-(5-(methyl-d3)-1,2,4-oxadiazol-3-yl)-2,3-dihydro-1H-inden-1-yl)-1H-pyrazole-4-carboxamide] | 1600 | 5400
[2H]C([2H])([2H])c1nc(-c2ccc3c(c2)CC[C@H]3NC(=O)c2ccnc(C)c2)no1 [Compound 245, (R)-2-methyl-N-(5-(5-(methyl-d3)-1,2,4-oxadiazol-3-yl)-2,3-dihydro-1H-inden-1-yl)isonicotinamide] | 1000 | 3400
[2H]C([2H])([2H])c1nc(-c2ccc3c(c2)CC[C@H]3NC(=O)c2cn(C)nc2C)no1 [Compound 246, (R)-1,3-dimethyl-N-(5-(5-(methyl-d3)-1,2,4-oxadiazol-3-yl)-2,3-dihydro-1H-inden-1-yl)-1H-pyrazole-4-carboxamide] | 1100 | 3500
[2H]C([2H])([2H])c1nc(-c2ccc3c(c2)CC[C@H]3NC(=O)c2cc(C)nn2C)no1 [Compound 247, (R)-1,3-dimethyl-N-(5-(5-(methyl-d3)-1,2,4-oxadiazol-3-yl)-2,3-dihydro-1H-inden-1-yl)-1H-pyrazole-5-carboxamide] | 800 | 2600
[2H]C([2H])([2H])c1nc(-c2ccc3c(c2)CC[C@H]3NC(=O)c2oncc2C)no1 [Compound 248, (R)-4-methyl-N-(5-(5-(methyl-d3)-1,2,4-oxadiazol-3-yl)-2,3-dihydro-1H-inden-1-yl)isoxazole-5-carboxamide] | 400 | 1500
[2H]C([2H])([2H])c1nc(-c2ccc3c(c2)CC[C@H]3NC(=O)c2cnc(C)o2)no1 [Compound 249, (R)-2-methyl-N-(5-(5-(methyl-d3)-1,2,4-oxadiazol-3-yl)-2,3-dihydro-1H-inden-1-yl)oxazole-5-carboxamide] | 1400 | 5200
[2H]C([2H])([2H])c1nc(-c2ccc3c(c2)CC[C@H]3NC(=O)c2cnn(C)c2C)no1 [Compound 250, (R)-1,5-dimethyl-N-(5-(5-(methyl-d3)-1,2,4-oxadiazol-3-yl)-2,3-dihydro-1H-inden-1-yl)-1H-pyrazole-4-carboxamide] | 1000 | 3600
[2H]C([2H])([2H])c1nc(-c2ccc3c(c2)CC[C@H]3NC(=O)c2ocnc2C)no1 [Compound 251, (R)-4-methyl-N-(5-(5-(methyl-d3)-1,2,4-oxadiazol-3-yl)-2,3-dihydro-1H-inden-1-yl)oxazole-5-carboxamide] | 500 | 1500
Cc1cc(-c2ccc3c(c2)CC[C@H]3NC(=O)c2nnn(C)n2)no1 [Compound 252, (R)-2-methyl-N-(5-(5-methylisoxazol-3-yl)-2,3-dihydro-1H-inden-1-yl)-2H-tetrazole-5-carboxamide] | 400 | 1500
CCc1noc(-c2ccc3c(c2)CC[C@H]3NC(=O)c2cnn(C)c2)n1 [Compound 254, (R)-N-(5-(3-ethyl-1,2,4-oxadiazol-5-yl)-2,3-dihydro-1H-inden-1-yl)-1-methyl-1H-pyrazole-4-carboxamide] | 1300 | 4900
CCc1noc(-c2ccc3c(c2)CC[C@H]3NC(=O)c2cnn(C)c2C)n1 [Compound 255, (R)-N-(5-(3-ethyl-1,2,4-oxadiazol-5-yl)-2,3-dihydro-1H-inden-1-yl)-1,5-dimethyl-1H-pyrazole-4-carboxamide] | 800 | 2600
CCc1noc(-c2ccc3c(c2)CC[C@H]3NC(=O)c2nnn(C)n2)n1 [Compound 256, (R)-N-(5-(3-ethyl-1,2,4-oxadiazol-5-yl)-2,3-dihydro-1H-inden-1-yl)-2-methyl-2H-tetrazole-5-carboxamide] | 500 | 1700
CCc1noc(-c2ccc3c(c2)CC[C@H]3NC(=O)c2ccnn2C)n1 [Compound 257, (R)-N-(5-(3-ethyl-1,2,4-oxadiazol-5-yl)-2,3-dihydro-1H-inden-1-yl)-1-methyl-1H-pyrazole-5-carboxamide] | 400 | 1000
Cn1cc(C(=O)N[C@@H]2CCc3cc(-c4nc(C5CC5)no4)ccc32)cn1 [Compound 258, (R)-N-(5-(3-cyclopropyl-1,2,4-oxadiazol-5-yl)-2,3-dihydro-1H-inden-1-yl)-1-methyl-1H-pyrazole-4-carboxamide] | 1500 | 5700

More lines, now with the values ahead:

CDMF75 IC15 [nM] | IC50 [nM] | SMILES
39200 | 39200 | COCc1nc(-c2ccc3c(c2)OC[C@@H]3NC(=O)c2cc(C)nn2C)no1 [Compound 225, (R)-N-(6-(5-(methoxymethyl)-1,2,4-oxadiazol-3-yl)-2,3-dihydrobenzofuran-3-yl)-1,3-dimethyl-1H-pyrazole-5-carboxamide]
1200 | 4000 | COCc1nc(-c2ccc3c(c2)OCC3NC(=O)c2cc(C)nn2C)no1 (centres unmarked) [Compound 226, N-(6-(5-(methoxymethyl)-1,2,4-oxadiazol-3-yl)-2,3-dihydrobenzofuran-3-yl)-1,3-dimethyl-1H-pyrazole-5-carboxamide]
700 | 2200 | COCc1nc(-c2ccc3c(c2)OC[C@H]3NC(=O)c2cc(C)nn2C)no1 [Compound 227, (S)-N-(6-(5-(methoxymethyl)-1,2,4-oxadiazol-3-yl)-2,3-dihydrobenzofuran-3-yl)-1,3-dimethyl-1H-pyrazole-5-carboxamide]
300 | 800 | CCc1nc(-c2ccc3c(c2)OC[C@H]3NC(=O)c2ccnn2C)no1 [Compound 228, (S)—N-(6-(5-ethyl-1,2,4-oxadiazol-3-yl)-2,3-dihydrobenzofuran-3-yl)-1-methyl-1H-pyrazole-5-carboxamide]
500 | 1400 | CCc1nc(-c2ccc3c(c2)OCC3NC(=O)c2ccnn2C)no1 (centres unmarked) [Compound 229, N-(6-(5-ethyl-1,2,4-oxadiazol-3-yl)-2,3-dihydrobenzofuran-3-yl)-1-methyl-1H-pyrazole-5-carboxamide]
600 | 1800 | CCc1nc(-c2ccc3c(c2)OCC3NC(=O)c2cc(C)nn2C)no1 (centres unmarked) [Compound 230, N-(6-(5-ethyl-1,2,4-oxadiazol-3-yl)-2,3-dihydrobenzofuran-3-yl)-1,3-dimethyl-1H-pyrazole-5-carboxamide]
300 | 1000 | CCc1nc(-c2ccc3c(c2)OC[C@H]3NC(=O)c2cc(C)nn2C)no1 [Compound 231, (S)-N-(6-(5-ethyl-1,2,4-oxadiazol-3-yl)-2,3-dihydrobenzofuran-3-yl)-1,3-dimethyl-1H-pyrazole-5-carboxamide]
700 | 2400 | Cc1cc(C(=O)NC2COc3cc(-c4noc(C5CC5)n4)ccc32)n(C)n1 (centres unmarked) [Compound 232, N-(6-(5-cyclopropyl-1,2,4-oxadiazol-3-yl)-2,3-dihydrobenzofuran-3-yl)-1,3-dimethyl-1H-pyrazole-5-carboxamide]
300 | 1100 | Cc1cc(C(=O)N[C@@H]2COc3cc(-c4noc(C5CC5)n4)ccc32)n(C)n1 [Compound 233, (S)-N-(6-(5-cyclopropyl-1,2,4-oxadiazol-3-yl)-2,3-dihydrobenzofuran-3-yl)-1,3-dimethyl-1H-pyrazole-5-carboxamide]
